Test results from publication PMC3392217, “BmK-YA, an Enkephalin-Like Peptide in Scorpion Venom” (PLoS ONE, 2012).
No end group written: not given here.

Legend:
Type in all cases: cell-based
human opioid receptor δ = target: T1, human opioid receptor δ (Homo sapiens, UniProt P41143); assay: Ca2+ response monitored by FLIPR, δ-expressing cells
T1 construct: expressed in transfected cells
Experimental: (§1) The assay was performed as reported earlier.
(§2) Potency is determined by EC50.

human opioid receptor μ = target: T2, human opioid receptor μ (Homo sapiens, UniProt P35372); assay: Ca2+ response monitored by FLIPR, μ-expressing cells; settings: μ-expressing HEK293T cells
T2 construct: expressed in transfected cells
Experimental: as §1, §2

human opioid receptor κ = target: T3, human opioid receptor κ (Homo sapiens, UniProt P41145); assay: Ca2+ response monitored by FLIPR, κ-expressing cells; settings: κ-expressing HEK293T cells
T3 construct: expressed in transfected cells
Experimental: as §1, §2

[1] = Gqαi3 cotransfected, Fluo-4 AM, FLIPR, mean±SE, n = 3, read-out: EC50 (intracellular Ca2+ mobilization)

T1 sequence (P41143 whole entry): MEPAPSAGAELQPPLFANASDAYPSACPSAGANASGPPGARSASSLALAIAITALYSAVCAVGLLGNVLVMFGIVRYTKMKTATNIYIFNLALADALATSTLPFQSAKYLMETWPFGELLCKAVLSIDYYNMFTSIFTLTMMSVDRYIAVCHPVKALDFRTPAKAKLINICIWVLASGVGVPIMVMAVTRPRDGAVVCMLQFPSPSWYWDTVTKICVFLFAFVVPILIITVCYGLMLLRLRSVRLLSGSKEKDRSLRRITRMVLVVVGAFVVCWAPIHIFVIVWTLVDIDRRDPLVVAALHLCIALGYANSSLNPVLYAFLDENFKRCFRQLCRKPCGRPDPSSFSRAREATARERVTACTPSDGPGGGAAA
T2 sequence (P35372 whole entry): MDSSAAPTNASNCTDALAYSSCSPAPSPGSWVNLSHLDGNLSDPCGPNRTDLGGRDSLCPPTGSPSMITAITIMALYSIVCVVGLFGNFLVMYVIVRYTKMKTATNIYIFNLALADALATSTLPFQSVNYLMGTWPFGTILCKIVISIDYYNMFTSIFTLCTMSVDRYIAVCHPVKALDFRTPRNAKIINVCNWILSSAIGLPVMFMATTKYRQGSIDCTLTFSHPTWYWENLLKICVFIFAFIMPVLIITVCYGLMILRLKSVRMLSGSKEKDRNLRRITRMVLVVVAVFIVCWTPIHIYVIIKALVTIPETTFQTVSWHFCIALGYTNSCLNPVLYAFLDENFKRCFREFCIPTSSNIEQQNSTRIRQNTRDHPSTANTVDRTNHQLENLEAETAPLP
T3 sequence (P41145 whole entry): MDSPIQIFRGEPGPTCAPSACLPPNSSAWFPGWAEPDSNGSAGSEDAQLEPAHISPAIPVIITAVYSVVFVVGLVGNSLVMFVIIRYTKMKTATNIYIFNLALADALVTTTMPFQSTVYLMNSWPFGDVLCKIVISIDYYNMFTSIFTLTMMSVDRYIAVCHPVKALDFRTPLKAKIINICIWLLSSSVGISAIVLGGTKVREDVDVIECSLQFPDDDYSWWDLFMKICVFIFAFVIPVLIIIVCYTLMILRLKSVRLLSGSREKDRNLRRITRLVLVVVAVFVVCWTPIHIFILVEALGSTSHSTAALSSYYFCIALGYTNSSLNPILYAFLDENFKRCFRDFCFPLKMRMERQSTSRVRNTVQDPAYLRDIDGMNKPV

Substance	Agonist activity, in words (human opioid receptor δ; δ-expressing HEK293T cells, 1 nM to 50 µM)	Agonist activity, in words (human opioid receptor μ; 1 nM to 50 µM)	Agonist activity, in words (human opioid receptor κ; 1 nM to 50 µM)	Selectivity to the δ-subtype over κ (times) (human opioid receptor δ; δ versus κ, FLIPR EC50)	Selectivity to the δ-subtype over μ (times) (human opioid receptor δ; δ versus μ, FLIPR EC50)	EC50 (human opioid receptor δ; δ-expressing HEK293T cells, Gqαi3 cotransfected, Fluo-4 AM, FLIPR, mean±SE, n = 3, read-out: EC50 (intracellular Ca2+ mobilization))	EC50 (human opioid receptor μ; [1])	EC50 (human opioid receptor κ; [1])
YGGHMNPA [His^4-BmK-YA]	no activity was detected	no activity was detected	no activity was detected					
YGGYMNPA-NH2 [BmK-YA]				12 times	6.8 times	2.5 µM	17 µM	30 ± 0.5 µM
